Source: US5286735A, “Derivatives of 4-aminomethylpiperidine, their preparation and their use as therapeutics” (Pierre Fabre Medicament, priority 1991, dated 1994)

What follows are compounds tested against T1, serotoninergic 5-HT1A receptors (Rattus norvegicus, UniProt P19327) (assay: 5-HT1A binding studies (3H-8-OH-DPAT ligand, rat hippocampus membranes)). Conditions: 3H-8-OH-DPAT 1 nM, 30 min at 25° C.
T1 construct: The hippocampus is crushed with Polytron; from tissue; host or cells: rat hippocampus membranes (male Charles River rats)
T1 sequence (P19327 1-422): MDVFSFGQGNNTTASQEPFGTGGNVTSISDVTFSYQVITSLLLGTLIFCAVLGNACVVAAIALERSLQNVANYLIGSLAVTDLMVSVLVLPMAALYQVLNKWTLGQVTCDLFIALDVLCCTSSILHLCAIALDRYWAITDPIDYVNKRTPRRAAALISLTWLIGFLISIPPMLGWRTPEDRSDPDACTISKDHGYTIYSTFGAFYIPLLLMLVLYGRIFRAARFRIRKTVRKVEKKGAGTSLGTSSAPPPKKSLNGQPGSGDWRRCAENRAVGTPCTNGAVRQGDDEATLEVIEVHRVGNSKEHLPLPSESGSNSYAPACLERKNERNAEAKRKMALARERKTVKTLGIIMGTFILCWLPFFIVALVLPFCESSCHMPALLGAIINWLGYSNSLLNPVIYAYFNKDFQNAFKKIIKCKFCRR
Design: species or system rat (male Charles River)
Protocol: The 5-HT1A binding studies were carried out in accordance with Peroutka's technique (see: Peroutka, S. J.: J. Neurochem. 47:529-540, 1986). Male Charles River rats are stunned and decapitated, the brain is removed and dissected. The different cerebral areas obtained are used or preserved at minus 20° C. The hippocampus is crushed with Polytron® (20 seconds at 7) in 20 volumes of 50 mM Tris-HCl buffer (pH 7.7 at 25° C.) and centrifuged at 45,000 g for 10 min. The residue is separated, taken up in the same volume of Tris buffer and incubated for 10 min at 37° C., and then again centrifuged for 10 min at 45, 000 g. The residue is then taken up in 100 volumes of Tris-HCl buffer containing 10 μm of Pargyline, 4 mM CaCl2 and 0.1% ascorbic acid. The mixture obtained is Dounce homogenized.
The binding is effected starting with 0.8 ml of the above membrane suspension to which 0.1 ml of ^3 H-8-OH-DPAT ligand is added (in a concentration of 1 nM) and either 0.1 ml of Tris buffer (control) or the compound of the present invention is added. After incubation for 30 min at 25° C., the mixture is filtered on GF/B (Whatman) and rinsed with 5 ml of iced Tris-HCl buffer. The residue and the filter are finally introduced into a vial containing 3 ml of Instage® scintillating liquid (Packard) and the radioactivity is measured with a Packard counter (Tri-Carbs®). The IC50 are determined graphically for a ligand concentration of 1 nM.

Row | SMILES | IC50 [nM]
1 | Cc1cccc(C(=O)N2CCC(CNCC3Cc4ccccc4O3)CC2)c1 (stereo not drawn) [Compound 3, 1-(3-Methylbenzoyl) 4-[(2,3-dihydrobenzofuran-2-yl)methylaminomethyl] piperidine] | 7.5
2 | Cc1cccc(C(=O)N2CCC(CNCC3CCc4ccccc4C3)CC2)c1 (stereo not drawn) [Compound 5, 1-(3-Methylbenzoyl) 4-[(1,2,3,4-tetrahydronaphthalen-2-yl)methylaminomethyl] piperidine] | 12.5
3 | Cc1cccc(C(=O)N2CCC(CNCC3CCc4ccccc4O3)CC2)c1 (stereo not drawn) [Compound 7, 1-(3-Methylbenzoyl) 4-[(3,4-dihydro 2[H].1-benzopyran-2-yl)methylaminomethyl] piperidine] | 3.8

Results, then the compound that gave them:

Row | IC50 [nM] | SMILES
4 | 3 | O=C(c1ccccc1)N1CCC(CNCC2COc3ccccc3O2)CC1 (stereo not drawn) [Compound 9, 1-Benzoyl 4-(1,4-benzodioxan-2-ylmethylaminomethyl) piperidine]
5 | 4.4 | Cc1ccc(CN2CCC(CNCC3COc4ccccc4O3)CC2)cc1 (stereo not drawn) [Compound 17, 1-(4-Methylbenzyl) 4-(1,4-benzodioxan-2-ylmethylaminomethyl) piperidine]
6 | 2.1 | Clc1cccc(CN2CCC(CNCC3COc4ccccc4O3)CC2)c1 (stereo not drawn) [Compound 22, 1-(3-Chlorobenzyl) 4-(1,4-benzodioxan-2-ylmethylaminomethyl) piperidine]
